The target in this experiment is human PDE4D catalytic domain (Homo sapiens (Human), UniProt Q08499). Put plainly: PDE4 Assay (TR-FRET, FAM-cAMP cleavage). It counts as biochemical. As to conditions: human PDE4D catalytic domain (UniProt Q08499 [S380-L740]); 50% inhibition of substrate cleavage; read-out: PDE4 IC50 range. The gist of the method: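 Readout is Tb-to-FAM time-resolved FRET after nanoparticle capture of AMP, the product of cleaving a cAMP/FAM-cAMP mixture by PDE4D catalytic domain (S380-L740) in the presence of titrated compound. Values are IC50 ranges in nM: concentration halving substrate cleavage relative to controls.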
human PDE4D catalytic domain, sequence (Q08499 380-740): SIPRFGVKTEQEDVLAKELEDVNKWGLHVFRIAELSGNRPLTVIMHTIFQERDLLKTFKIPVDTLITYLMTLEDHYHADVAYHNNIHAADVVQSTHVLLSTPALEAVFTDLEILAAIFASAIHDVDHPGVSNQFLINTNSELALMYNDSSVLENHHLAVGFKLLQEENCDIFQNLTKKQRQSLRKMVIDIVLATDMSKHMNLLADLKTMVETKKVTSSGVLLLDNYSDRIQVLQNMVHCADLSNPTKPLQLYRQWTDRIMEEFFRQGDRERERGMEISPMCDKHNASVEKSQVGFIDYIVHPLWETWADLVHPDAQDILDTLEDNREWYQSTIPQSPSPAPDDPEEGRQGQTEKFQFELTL
(Time-resolved FRET reads energy transfer from a long-lived donor to a nearby acceptor.)
Turning to `CCn1nc(CCCOC(=O)c2ccc(Cl)c(C(F)(F)F)c2)c2c1C(=O)NCC1(CCOCC1)C2` [Example 89, 3-(1-ethyl-8-oxo-spiro[6,7-dihydro-4H-pyrazolo[3,4-c]azepine-5,4′-tetrahydro-pyran]-3-yl)propyl 4-chloro-3-(trifluoromethyl)benzoate], the IC50 (usually the concentration needed to halve the response being measured) was less than 100 nM.

On to `CCn1nc(CCCOC(=O)c2cc(Cl)cc(C(F)(F)F)c2)c2c1C(=O)NCC1(CCOCC1)C2` [Example 90, 3-(1-ethyl-8-oxo-spiro[6,7-dihydro-4H-pyrazolo[3,4-c]azepine-5,4′-tetrahydro-pyran]-3-yl)propyl 3-chloro-5-(trifluoromethyl)benzoate], for which the IC50 is less than 100 nM.

As for `CCn1nc(CCCOC(=O)c2cc(C(F)(F)F)ccc2Cl)c2c1C(=O)NCC1(CCOCC1)C2` [Example 91, 3-(1-ethyl-8-oxo-spiro[6,7-dihydro-4H-pyrazolo[3,4-c]azepine-5,4′-tetrahydro-pyran]-3-yl)propyl 2-chloro-5-(trifluoromethyl)benzoate], the IC50 is less than 100 nM.

`CCn1nc(CCCOC(=O)c2cccc(S(=O)(=O)C(C)C)c2)c2c1C(=O)NCC1(CCOCC1)C2` [Example 92, 3-(1-ethyl-8-oxo-spiro[6,7-dihydro-4H-pyrazolo[3,4-c]azepine-5,4′-tetrahydropyran]-3-yl)propyl 3-isopropylsulfonylbenzoate]: the IC50 was less than 100 nM.

Regarding `CCn1nc(CCCOC(=O)c2ccc(S(=O)(=O)C(C)C)cc2)c2c1C(=O)NCC1(CCOCC1)C2` [Example 93, 3-(1-ethyl-8-oxo-spiro[6,7-dihydro-4H-pyrazolo[3,4-c]azepine-5,4′-tetrahydropyran]-3-yl)propyl 4-isopropylsulfonylbenzoate], the 50% inhibitory concentration (IC50) is less than 100 nM.

Take `CCn1nc(CCCOC(=O)c2ccc(S(=O)(=O)C3CCCC3)cc2)c2c1C(=O)NCC1(CCOCC1)C2` [Example 94, 3-(1-ethyl-8-oxo-spiro[6,7-dihydro-4H-pyrazolo[3,4-c]azepine-5,4′-tetrahydropyran]-3-yl)propyl 4-cyclopentylsulfonylbenzoate]: the 50% inhibitory concentration (IC50) was less than 100 nM.

For the molecule `CCn1nc(CCCOC(=O)c2cccc(S(=O)(=O)N3CCCC3)c2)c2c1C(=O)NCC1(CCOCC1)C2` [Example 95, 3-(1-ethyl-8-oxo-spiro[6,7-dihydro-4H-pyrazolo[3,4-c]azepine-5,4′-tetrahydro-pyran]-3-yl)propyl 3-pyrro-lidin-1-ylsulfonylbenzoate], the half-maximal inhibitory concentration (IC50) is less than 100 nM.

For the molecule `CCn1nc(CCCOC(=O)c2ccc(S(=O)(=O)N3CCCC3)cc2)c2c1C(=O)NCC1(CCOCC1)C2` [Example 96, 3-(1-ethyl-8-oxo-spiro[6,7-dihydro-4H-pyrazolo[3,4-c]azepine-5,4′-tetrahydro-pyran]-3-yl)propyl 4-pyrro-lidin-1-ylsulfonylbenzoate], the IC50 was less than 100 nM.

As to `CCn1nc(CCCOC(=O)c2ccc(C(F)(F)F)cc2C(F)(F)F)c2c1C(=O)NCC1(CCOCC1)C2` [Example 97, 3-(1-ethyl-8-oxo-spiro[6,7-dihydro-4H-pyrazolo[3,4-c]azepine-5,4′-tetrahydro-pyran]-3-yl)propyl 2,4-bis(trifluoromethyl)benzoate], the IC50 is less than 100 nM.

Consider `CCn1nc(CCCOC(=O)c2ccc(C(F)(F)F)c(C(F)(F)F)c2)c2c1C(=O)NCC1(CCOCC1)C2` [Example 98, 3-(1-ethyl-8-oxo-spiro[6,7-dihydro-4H-pyrazolo[3,4-c]azepine-5,4′-tetrahydropyran]-3-yl)propyl 3,4-bis(trifluoromethyl)benzoate], for which the IC50 is less than 100 nM.

For `CCn1nc(CCCOC(=O)c2cccc(S(=O)(=O)N3CCOCC3)c2)c2c1C(=O)NCC1(CCOCC1)C2` [Example 99, 3-(1-ethyl-8-oxo-spiro[6,7-dihydro-4H-pyrazolo[3,4-c]azepine-5,4′-tetrahydropyran]-3-yl)propyl 3-morpholinosulfonylbenzoate], the IC50 is less than 100 nM.

For `CCn1nc(CCCOC(=O)c2ccc(S(=O)(=O)N3CCOCC3)cc2)c2c1C(=O)NCC1(CCOCC1)C2` [Example 100, 3-(1-ethyl-8-oxo-spiro[6,7-dihydro-4H-pyrazolo[3,4-c]azepine-5,4′-tetrahydropyran]-3-yl)propyl 4-morpholinosulfonylbenzoate], the half-inhibitory concentration (IC50) is less than 100 nM.

On to `CCn1nc(CCCOC(=O)c2cccc(S(=O)(=O)N3CCN(C(C)=O)CC3)c2)c2c1C(=O)NCC1(CCOCC1)C2` [Example 101, 3-(1-ethyl-8-oxo-spiro[6,7-dihydro-4H-pyrazolo[3,4-c]azepine-5,4′-tetrahydropyran]-3-yl)propyl 3-(4-acetylpiperazin-1-yl)sulfonylbenzoate], for which the 50% inhibitory concentration (IC50) is less than 100 nM.

As to `CCn1nc(CCCOC(=O)c2ccc(S(=O)(=O)N3CCN(C(C)=O)CC3)cc2)c2c1C(=O)NCC1(CCOCC1)C2` [Example 102, 3-(1-ethyl-8-oxo-spiro[6,7-dihydro-4H-pyrazolo[3,4-c]azepine-5,4′-tetrahydropyran]-3-yl)propyl 4-(4-acetylpiperazin-1-yl)sulfonylbenzoate], the IC50 is less than 100 nM.

For the molecule `CCn1nc(CCCOC(=O)c2ccc(C(N)=O)cc2)c2c1C(=O)NCC1(CCOCC1)C2` [Example 104, 3-(1-ethyl-8-oxo-spiro[6,7-dihydro-4H-pyrazolo[3,4-c]azepine-5,4′-tetrahydropyran]-3-yl)propyl 4-carbamoylbenzoate], the IC50 is less than 100 nM.

For `CCn1nc(CCCOC(=O)c2ccc(C(=O)NC)cc2)c2c1C(=O)NCC1(CCOCC1)C2` [Example 105, 3-(1-ethyl-8-oxo-spiro[6,7-dihydro-4H-pyrazolo[3,4-c]azepine-5,4′-tetrahydro-pyran]-3-yl)propyl 4-(methylcarbamoyl)benzoate], the half-maximal inhibitory concentration (IC50) was less than 100 nM.

For `CCn1nc(CCCOC(=O)c2ccc(C(=O)N(C)C)cc2)c2c1C(=O)NCC1(CCOCC1)C2` [Example 106, 3-(1-ethyl-8-oxo-spiro[6,7-dihydro-4H-pyrazolo[3,4-c]azepine-5,4′-tetrahydro-pyran]-3-yl)propyl 4-(dimethylcarbamoyl)benzoate], the IC50 was less than 100 nM.

Consider `CCn1nc(CCCOC(=O)c2ccc(C(=O)N3CCCC3)cc2)c2c1C(=O)NCC1(CCOCC1)C2` [Example 107, 3-(1-ethyl-8-oxo-spiro[6,7-dihydro-4H-pyrazolo[3,4-c]azepine-5,4′-tetrahydro-pyran]-3-yl)propyl 4-(pyrrolidine-1-carbonyl)benzoate], for which the IC50 was less than 100 nM.

Turning to `CCn1nc(CCCOC(=O)c2ccc(C(=O)N3CCCCC3)cc2)c2c1C(=O)NCC1(CCOCC1)C2` [Example 108, 3-(1-ethyl-8-oxo-spiro[6,7-dihydro-4H-pyrazolo[3,4-c]azepine-5,4′-tetrahydro-pyran]-3-yl)propyl 4-(piperidine-1-carbonyl)benzoate], the IC50 is less than 100 nM.

Consider `CCn1nc(CCCOC(=O)c2ccc(C(=O)N3CCOCC3)cc2)c2c1C(=O)NCC1(CCOCC1)C2` [Example 109, 3-(1-ethyl-8-oxo-spiro[6,7-dihydro-4H-pyrazolo[3,4-c]azepine-5,4′-tetrahydropyran]-3-yl)propyl 4-(morpholine-4-carbonyl)benzoate], for which the IC50 is less than 100 nM.

Regarding `CCn1nc(CCCOC(=O)c2ccc(C(=O)N3CCN(C)CC3)cc2)c2c1C(=O)NCC1(CCOCC1)C2` [Example 110, 3-(1-ethyl-8-oxo-spiro[6,7-dihydro-4H-pyrazolo[3,4-c]azepine-5,4′-tetrahydropyran]-3-yl)propyl 4-(4-methylpiperazine-1-carbonyl)benzoate], the half-maximal inhibitory concentration (IC50) is less than 100 nM.

The values are drawn from US10793580B2, “Substituted pyrazoloazepin-8-ones and their use as phosphodiesterase inhibitors” (LEO Pharma A/S, priority 2016, dated 2020).
